Assay [1] concerns cells expressing mutant Ras. To be noted: cited from earlier work.
The test system of assay [2] is HCT-116, a highly Ras-driven line expressing mutant Ras. The assay can be described thus: Tumor cell growth inhibition, CellTiter-Glo ATP luminescence assay, HCT-116. The assay is classed as cell-based, human. To be noted: for IC50: HCT-116, 72 h, human colon tumor cells, mutant Ras, 3-day treatment, ten-fold serial dilutions, read-out: micromolar IC50 for HCT-116; for HT-29/HCT-116 Ras Inhibitory Selectivity Index: ratio IC50 HT-29 / IC50 HCT-116, numbers greater than one indicate Ras selectivity. On the procedure:
(§1) Human cancer cell lines are obtained from the American Type Culture Collection (ATCC). Cells are cultured using standard methods in RPMI-1640 growth medium supplemented with 5% fetal bovine serum (FBS). CellTiter-Glo ATP cell growth assay reagents are obtained from Promega and used according to the manufacturer's protocol. Cells are plated at a density of 5,000 cells per well in 96-well microplates or 1,250 cells per well in 384-well plates, then allowed to attach for at least 4 h. Test compounds are dissolved in dimethyl sulfoxide (DMSO), and this working stock is further diluted in growth medium for addition to cell cultures. Serial dilutions of the test compound are prepared in growth medium containing an equal amount of DMSO not exceeding 0.2% final concentration. Each compound concentration is tested in at least 3 separate samples per cell line. At the end of a 3-day treatment period, growth inhibition is analyzed using a bioluminescent assay of ATP concentration (Promega CellTiter-Glo) according to the manufacturer's protocol. Resulting luminescence is measured using the luminescence cartridge of the Molecular Devices Spectramax Paradigm microplate reader. Relative growth inhibition for each sample is determined by comparison with the values obtained for vehicle treated control samples. Growth inhibition values are plotted with the GraphPad Prism5 software using the 4-parameter logistic fit to obtain IC50 values, which corresponds to the growth inhibitory potency of the compound.
(§2) This selected example illustrates the use of well-established human colon tumor cell lines with widely divergent Ras activation status to determine tumor cell growth inhibitory activity (IC50 values) and Ras selectivity values for some selected exemplary compounds of the present invention. Cell lines thus employed in this example are HCT-116, a highly Ras-driven line expressing mutant Ras, and HT-29, a non-Ras-driven line expressing wild-type, non-mutated Ras. Cells are plated at 5000 cells/well in 96-well plates, ten-fold serial dilutions of compounds are tested, each tested concentration in at least 3 separate samples per cell line, and viable cell numbers are measured using the Cell Titer Glo ATP luminescence assay (Promega). […] FIGS. 5-7 provide examples of full data sets from which numerical values, including Ras selectivity indices, can be calculated; data sets are shown for selected exemplary compounds 2090, 2096 and 2183. […]

Assay [3] concerns HT-29, a non-Ras-driven line expressing wild-type, non-mutated Ras. The assay can be described thus: Tumor cell growth inhibition, CellTiter-Glo ATP luminescence assay, HT-29. To be noted: HT-29, 72 h, human colon tumor cells, 3-day treatment, ten-fold serial dilutions, read-out: micromolar IC50 for HT-29. The assay is classed as cell-based. On the procedure:
as §1, §2

The text below walks through data of patent publication US11680073B2, “Anticancer indenes, indanes, azaindenes, azaindanes, pharmaceutical compositions and uses” (ADT PHARMACEUTICALS, LLC, priority 2018, dated 2023).

Regarding `Cc1onc(C(=O)N2CCN(C(c3ccc(Cl)cc3)c3ccc(Cl)cc3)CC2)c1[N+](=O)[O-]` [ML210], the IC50 in assay [1] (cells expressing mutant Ras, read-out: IC50, growth inhibition of cells expressing mutant Ras) was 0.071 µM. The “selectivity versus cells lacking oncogenic Ras” value in assay [1] (versus cells lacking oncogenic Ras) is recorded as 4 fold.
Take `COc1cc(CC2c3ccc(F)cc3C(CC(=O)NCc3ccccc3)C2C)cc(OC)c1O` (centres unmarked) [compound 1796, N-benzyl-2-(6-fluoro-3-(4-hydroxy-3,5-dimethoxybenzyl)-2-methyl-2,3-dihydro-1H-inden-1-yl)acetamide]: in assay [2], the IC50 came to 0.212 µM and the “HT-29/HCT-116 Ras Inhibitory Selectivity Index” value stood at 38. Besides, in assay [3], the IC50 is 8.03 µM.
In the case of `COc1cc(/C=C2/C(C)=C(CC(=O)NCc3cccnc3)c3cc(F)ccc32)cc(OC)c1B(O)O` [compound 1736, (Z)-(4-((5-fluoro-2-methyl-3-(2-oxo-2-((pyridin-3-ylmethyl)amino)ethyl)-1H-inden-1-ylidene)methyl)-2,6-dimethoxyphenyl)boronic acid], the IC50 in assay [2] is 5.05 µM; in assay [3] it was 5.59 µM. The “HT-29/HCT-116 Ras Inhibitory Selectivity Index” value in assay [2] amounted to 1.11.
`COc1cc(/C=C2/C(C)=C(CC(=O)NCc3cccnc3)c3cc(F)ccc32)cc(OC)c1B1OC(C)(C)C(C)(C)O1` [compound 2200, (Z)-2-(1-(3,5-dimethoxy-4-(4,4,5,5-tetramethyl-1,3,2-dioxaborolan-2-yl)benzylidene)-5-fluoro-2-methyl-1H-inden-3-yl)-N-(pyridin-3-ylmethyl)acetamide]: the IC50 in assay [2] worked out at 6.18 µM; in assay [3], 6.65 µM. Further, the “HT-29/HCT-116 Ras Inhibitory Selectivity Index” value in assay [2] is 1.08.
Consider `COc1cc(/C=C2/C(C)=C(CNC(=O)Cc3cccnc3)c3cc(F)ccc32)cc(OC)c1O` [compound 2096, (Z)—N-((5-fluoro-1-(4-hydroxy-3,5-dimethoxybenzylidene)-2-methyl-1H-inden-3-yl)methyl)-2-(pyridin-3-yl)acetamide], for which, in assay [2], the IC50 stood at 0.033 µM and the “HT-29/HCT-116 Ras Inhibitory Selectivity Index” value is given as 273. The IC50 in assay [3] stood at 9 µM.
For the molecule `COc1cc(/C=C2/C(C)=C(CNC(=O)c3ccco3)c3cc(F)ccc32)cc(OC)c1O` [compound 2090, (Z)—N-((5-fluoro-1-(4-hydroxy-3,5-dimethoxybenzylidene)-2-methyl-1H-inden-3-yl)methyl)furan-2-carboxamide], in assay [2], the IC50 came out at 0.3 µM and the “HT-29/HCT-116 Ras Inhibitory Selectivity Index” value amounted to 43. In addition, in assay [3], the IC50 was 13 µM.
`COc1cc(/C=C2/C(C)=C(CNC(=O)c3cn[nH]c3)c3cc(F)ccc32)cc(OC)c1O` [compound 2183, (Z)—N-((5-fluoro-1-(4-hydroxy-3,5-dimethoxybenzylidene)-2-methyl-1H-inden-3-yl)methyl)-1H-pyrazole-4-carboxamide]: the results for the IC50 in assay [2] and in assay [3] were 0.42 µM and 9.28 µM, respectively. Also, the “HT-29/HCT-116 Ras Inhibitory Selectivity Index” value in assay [2] is 22.
